# Measured values from US20090124678A1, “Combined Use of Metconazole and Epoxiconazole for Reducing or Preventing the Contamination of Cereals With Mycotoxins” (priority 2005, published 2009).
# What was measured:
# Fusarium sp. = assay: Fusarium ear infection of winter wheat under field conditions, determined visually; assay type: in vivo, Fusarium sp. on winter wheat cultivar "Ritmo"; details: winter wheat "Ritmo" inoculated with Fusarium sp. at GS 25-29, sprayed at GS 63, assessed three weeks after application, relative to untreated control, metconazole 45 g/ha, epoxyconazole 75 g/ha
# Protocol: (§1) At growth stage GS 25-29 (tillering), outdoor winter wheat of the cultivar “Ritmo” was inoculated with rye grains infected with Fusarium sp. The active compounds were applied at growth stage GS 63 (beginning of flowering). Both metconazole and epoxyconazole were used as finished formulations (metconazole: trade name “Caramba”; epoxyconazole: trade name “Opus”; metconazole as SL=[…]; epoxyconazole as SC=suspensible concentrate). These formulations were diluted with water to the desired concentration, and the plants were treated by spraying with these diluted preparations. The active compounds were applied jointly as a tank mix. For comparison, the individual fungicides were also only employed on their own. Three weeks after application, the infection of the ears with Fusarium fungi was determined visually. The wheat grains were harvested and the DON content of the grains was determined after extraction and analysis by HPLC/MS. For comparative evaluation, the Fusarium infection and the DON value found for untreated wheat were defined as 100%. […] The expected efficacies for active compound combinations were determined using Colby's formula (S. R. Colby, Calculating Synergistic and Antagonistic Responses of Herbicide Combinations, Weeds, 15, pages 20-22, 1967) and compared with the observed efficacies.
# deoxynivalenol (DON) = assay: DON content of harvested wheat grains after field treatment (extraction, HPLC/MS); assay type: in vivo, Fusarium sp. on winter wheat cultivar "Ritmo"; details: relative to untreated wheat (33.7 mg/kg DON), sprayed at GS 63, metconazole 45 g/ha, epoxyconazole 75 g/ha
# Protocol: as §1
Structure (SMILES),Effect on infection [%] (Fusarium sp.),Reduction of DON content [%] (deoxynivalenol (DON))
Fc1ccc([C@]2(Cn3cncn3)O[C@H]2c2ccccc2Cl)cc1 (racemic) [epoxyconazole],5%,0%
CC1(C)CCC(Cc2ccc(Cl)cc2)C1(O)Cn1cncn1 (stereo not shown) [metconazole],27%,33%
